The values that follow come from patent US20040005649A1, “Anti-stilbene antibodies” (priority 2003, published 2004).

For one data set, the system named is mAb 19G2. In words: Binding of stilbene-tethered C-nucleosides to blue-fluorescent mAb 19G2 (fluorescence, crystal soak). Also on record: species or system mice. As to conditions: for emission of mAb 19G2 crystal after soaking: crystal soaked with ligand, UV lamp. How it is done: Each C-nucleoside was tested for the ability to bind to the blue-fluorescent monoclonal antibody (mAb) 19G2. […] Subsequently, we acquired X-ray crystallographic data on both complexes primarily to obtain information regarding positioning of the nucleobase moiety with regard to the protein framework. The structures of the 19G2-9 and 19G2-18 complexes were determined to a resolution of 2.45 Å and 2.20 Å, respectively (Table 4). In both cases, the antibody structures differ by an RMSD of 0.61 Å and 0.50 Å from that of the previously determined 19G2-12 complex. The stilbene portion of both 9 and 18 is clear in 2σ density and could be readily modeled into the density as the trans-isomer. For both complexes, binding site amino acid residues within 5 Å of the stilbene are observed to be in the same conformation as in 19G2-12.
X-ray crystallography. Crystals of mAb 19G2 were soaked overnight with a 0.25 mM solution of either 9 or 18 (DMF stock solutions) in mother liquor from the crystal growth (12% polyethylene glycol, 0.1 M sodium acetate pH 4.75, 0.3 M magnesium chloride) containing 5% DMF. Formation of the complex in the crystal was assayed by the appearance of blue fluorescence from soaked crystals when illuminated by a hand-held UV lamp at 312 nm (Spectronics Corp.; Westbury, N.Y.). The crystals were soaked in a cryobuffer consisting of 20% glycerol, 0.25 mM 9 or 18, mother liquor, and 5% DMF and flash frozen in liquid nitrogen. X-ray diffraction was collected in-house with an FRD X-ray generator and a RAXISIVF^++ detector. Data was processed and scaled using HKL software package. The previously determined structure of the antibody (PDB ID CODE 1FL3) was used as a starting model for refinement. Multiple rounds of rigid body refinement, B-factor refinement, Powell minimization, simulated annealing in CNS and manual rebuilding in O were performed.

Data set [1] is described as follows: Steady-state UV absorption, fluorescence excitation and emission spectra, quantum yield. The class given is physicochemical. The method, then:
(A) UV absorption. (B) Fluorescence excitation. Note: The 19G2-2 complex and free 2 each required a separate y-axis scale for side-by-side comparison of peak shapes. (C) Fluorescence emission. See note for (B). In all cases, see Table 2 for experimental conditions. Steady-state excitation and emission spectra were recorded using an SLM 8100 spectrofluorimeter (Spectronics Instruments) with a bandpass of 4 nm for excitation and emission.

For data set [2] the following is noted: 77° K in hydrophobic solvents and 193° K in glycerol; cited from earlier work.
Data set [3] in a line: Picosecond time-resolved emission, time-correlated single photon counting. The class given is physicochemical. How it is done:
Measurements were obtained with picosecond excitation at 318 nm. Decays were measured at 380 nm (free 2, 16H10 and 25E5 complexes) or 410 nm (19G2 complex) by time-correlated single photon counting. Decays were recorded in 4096 channels with a time increment of 18 ps/channel and were normalized relative to the number of counts recorded in the peak channel. See Table 3 for experimental conditions.
Normalized time-resolved emission profiles of the 20F2-2 complex were recorded at 370 nm (purple) and 480 nm (blue). The solid lines are multiexponential fits to each decay. […] Decays were recorded in 4096 channels with a time increment of 4.9 ps/channel and were normalized relative to the number of counts recorded in the peak channel. See Table 3 for experimental conditions.
Dynamic spectroscopy. Picosecond time-resolved emission spectroscopy was used to further probe the dynamics of blue-fluorescent antibodies. Time-resolved emission decay profiles of free 2 and bound to EP2 mAbs were measured at room temperature by time-correlated single-photon counting (Table 3, FIG. 16).

The mark [4] stands for this setting: 20 μM mAb, 10 μM of 2 (or free stilbene), PBS pH 7.4, 5% DMF, 20° C.
Setting [5] is: 20 μM mAb, 10 μM of 2 (or free stilbene), PBS, 5% DMF, 20° C.

Regarding `O=C(CCCC(=O)Nc1ccc(/C=C/c2ccccc2)cc1)NCCc1ccc(C2C[C@H](O)[C@@H](CO)O2)cc1` (stereo partly drawn) [compound 9, N-[2-[4-[2-deoxy-D-erythro-pentofuranosyl]phenyl]ethyl]-N′-[4-[(1E)-2-phenylethenyl]phenyl]-pentanediamide, reference compound], in the data set with mAb 19G2, the “quantum yield (φf) of complex with mAb 19G2” value (from here on “quantum yield (φf) of complex”) is reported as “comparable” and the “emission of mAb 19G2 crystal after soaking” value was “blue emission”. Also, the λem in data set [1] (setting [4]) was found to be 442 nm. The same compound showed a εmax in data set [1] (setting [5]) of 30000 M⁻¹ cm⁻¹.
Take `C(=C\c1ccccc1)/c1ccccc1` [compound 1, trans-stilbene]: in data set [2], the φf is recorded as 0.75.
As to `O=C(O)CCCC(=O)Nc1ccc(/C=C/c2ccccc2)cc1` [compound 2, 5-oxo-5-[[4-[(1E)-2-phenylethenyl]phenyl]amino]-pentanoic acid], the “quantum yield (φf) of complex” value in the data set on mAb 19G2 is approximately 0.80. In data set [1] (setting [4]), this compound came in with a λem of 388 nm and a λex of 325 nm. Further, the εmax in data set [1] (setting [5]) worked out at 33200 M⁻¹ cm⁻¹. Further, the “φf lower than blue-fluorescent antibody complexes” value in data set [1] (free 2 in fluid solution) is listed as 30-40 fold. Further, the “φf (fluorescence quantum yield)” value in data set [1] (reference quinine bisulfate, 20 μM mAb, 10 μM of 2, PBS, 5% DMF, 20° C, accurate to ±10%) turned out to be 0.02. Also, the UV absorption bands in data set [1] (values in parentheses are shoulders/inflections, 20 μM mAb, 10 μM of 2, PBS, 5% DMF, 20° C) amounted to 320 nm. Further, in data set [3] (20 μM mAb, 10 μM of 2 (or free 2), PBS, 5% DMF, 20° C), the “fluorescence decay components, τf” value was determined as 0.071 ns. The “kr (radiative rate constant)” value in data set [3] (calculated as the inverse of τr) is given as 0.28 ns^−1. Besides, in data set [3] (calculated from τf and φf), the “τr (radiative lifetime)” value is listed as 3.6 ns. Also, the “knr (nonradiative rate constant)” value in data set [3] (calculated knr = [kr(1-φf)/φf]) is 14 ns^−1. The same compound registered a fluorescence lifetime in data set [3] (free in aqueous buffer, room temperature) of approximately 70 ps.
As to `OCC1OC(c2ccc(COCCOCCOCc3ccc(C=Cc4ccccc4)cc3)cc2)CC1O` [compound 18, 1,4-anhydro-2-deoxy-1-C-[4-[[2-[2-[[4-[(1E)-2-phenylethenyl]phenyl]methoxy]ethoxy]ethoxy]methyl]]phenyl]-D-erythro-pentitol], in the data set with mAb 19G2, the “quantum yield (φf) of complex” value was “comparable” and the “emission of mAb 19G2 crystal after soaking” value was “blue emission”.
